From patent US12692238B2, “Substituted pyridazinone herbicides” (FMC CORPORATION, priority 2020, dated 2026)

What was measured:
Assay type in all cases: in vivo
[1] = system: ragweed (common ragweed, Ambrosia artemisiifolia); assay: Test A postemergence, ragweed; conditions: 10 days
How it was run: (§1)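 Herbicidal response was scored visually after ten greenhouse days, comparing treated pots with untreated ones on a 0–100 control scale. Preemergence application was a directed soil spray; postemergence plants were treated at 2 to 10 cm height.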

[2] = system: foxtail, green (green foxtail, Setaria viridis); assay: Test A postemergence, foxtail, green; conditions: 10 days
Source text: (§2) Seeds of plant species selected from barnyardgrass (Echinochloa crus-galli), blackgrass (Alopecurus myosuroides), corn (Zea mays), foxtail, giant (giant foxtail, Setaria faberi), foxtail, green (green foxtail, Setaria viridis), goosegrass (Eleusine indica), kochia (Bassia scoparia), oat, wild (wild oat, Avena fatua), palmer amaranth (pigweed, palmer, Amaranthus palmeri), redroot pigweed (Amaranthus retroflexus), ragweed (common ragweed, Ambrosia artemisiifolia), ryegrass, Italian (Italian ryegrass, Lolium multiflorum), and soybean (Glycine max) were planted into a blend of loam soil and sand and treated preemergence with a directed soil spray using test chemicals formulated in a non-phytotoxic solvent mixture which included a surfactant.
(§3) At the same time, plants selected from these crop and weed species and also wheat (Triticum aestivum), galium (catchweed bedstraw, Galium aparine) and horseweed (Erigeron canadensis) were planted in pots containing the same blend of loam soil and sand and treated with postemergence applications of test chemicals formulated in the same manner. Plants ranged in height from 2 to 10 cm and were in the one- to two-leaf stage for the postemergence treatment. Treated plants and untreated controls were maintained in a greenhouse for 10 days, after which time all treated plants were compared to untreated controls and visually evaluated for injury. Plant response ratings, summarized in Table A, are based on a 0 to 100 scale where 0 is no effect and 100 is complete control. A dash (-) response means no test result.

[3] = system: wheat (Triticum aestivum); assay: Test A postemergence, wheat; conditions: 10 days
How it was run: as §1

[4] = system: kochia (Bassia scoparia); assay: Test A preemergence, kochia; conditions: 0 to 100 scale, 10 days
How it was run: as §1

[5] = system: barnyardgrass (Echinochloa crus-galli); assay: Test A preemergence, barnyardgrass; conditions: 10 days
How it was run: as §1

[6] = system: galium (catchweed bedstraw, Galium aparine); assay: Test A postemergence, galium; conditions: 10 days
How it was run: as §1

[7] = system: redroot pigweed (Amaranthus retroflexus); assay: Test A postemergence, redroot pigweed; conditions: 10 days
How it was run: as §1

[8] = system: foxtail, green (green foxtail, Setaria viridis); assay: Test A preemergence, foxtail, green; conditions: 0 to 100 scale, 10 days
Source text: as §2, §3

[9] = system: ragweed (common ragweed, Ambrosia artemisiifolia); assay: Test A preemergence, ragweed; conditions: 0 to 100 scale, 10 days
How it was run: as §1

[10] = system: corn (Zea mays); assay: Test A postemergence, corn; conditions: 10 days
How it was run: as §1

[11] = system: barnyardgrass (Echinochloa crus-galli); assay: Test A postemergence, barnyardgrass; conditions: 10 days
How it was run: as §1

[12] = system: redroot pigweed (Amaranthus retroflexus); assay: Test A preemergence, redroot pigweed; conditions: 0 to 100 scale, 10 days
How it was run: as §1

[13] = system: sedge, umbrella (small-flower umbrella sedge, Cyperus difformis); assay: Test B flooded paddy test, sedge, umbrella; conditions: 250 g ai/ha, Flood; visually evaluated after 10 to 14 days
How it was run: (§4)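 2-leaf plants; pots flooded to 3 cm; compound applied to paddy water; depth kept constant; greenhouse 10–14 d; visual rating vs untreated, 0 = no effect, 100 = complete control.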

[14] = system: ducksalad (Heteranthera limosa); assay: Test B flooded paddy test, ducksalad; conditions: 250 g ai/ha, Flood; visually evaluated after 10 to 14 days
How it was run: as §4

[15] = system: ryegrass, Italian (Italian ryegrass, Lolium multiflorum); assay: Test A preemergence, ryegrass, Italian; conditions: 0 to 100 scale, 10 days
How it was run: as §1

[16] = system: rice (Oryza sativa); assay: Test B flooded paddy test, rice; conditions: 250 g ai/ha, Flood; visually evaluated after 10 to 14 days
How it was run: as §4

[17] = system: barnyardgrass (Echinochloa crus-galli); assay: Test B flooded paddy test, barnyardgrass; conditions: 250 g ai/ha, Flood; visually evaluated after 10 to 14 days
How it was run: as §4

[18] = system: blackgrass (Alopecurus myosuroides); assay: Test A postemergence, blackgrass; conditions: 10 days
How it was run: as §1

[19] = system: kochia (Bassia scoparia); assay: Test A postemergence, kochia; conditions: 10 days
How it was run: as §1

[20] = system: ryegrass, Italian (Italian ryegrass, Lolium multiflorum); assay: Test A postemergence, ryegrass, Italian; conditions: 10 days
How it was run: as §1

[21] = 31 g ai/ha, postemergence, 0 to 100 scale (0 no effect, 100 complete control)
[22] = Postemergence, 125 g ai/ha, 0 to 100 scale
[23] = 125 g ai/ha, 0 to 100 scale (0 no effect, 100 complete control)
[24] = Postemergence, 31 g ai/ha, 0 to 100 scale

Cc1ccc2ccccc2c1-c1c(OCOC(=O)C(C)(C)C)c(Cl)nn(C)c1=O [Compound 7]
Plant response rating, Ragweed [1, 21]: 70 | Plant response rating, Ragweed [1, 22]: 90 | Plant response rating, Foxtail, Green [2, 21]: 10 | Plant response rating, Foxtail, Green [2, 22]: 70 | Plant response rating, Wheat [3, 21]: 0 | Plant response rating, Wheat [3, 22]: 50 | Plant response rating, Kochia ([4]; 31 g ai/ha): 10 | Plant response rating, Kochia ([4]; 125 g ai/ha): 70 | Plant response rating, Barnyardgrass ([5]; 31 g ai/ha, 0 to 100 scale): 50 | Plant response rating, Barnyardgrass [5, 23]: 90 | Plant response rating, Galium [6, 21]: 70 | Plant response rating, Galium [6, 22]: 90 | Plant response rating, Pigweed, Redroot [7, 21]: 80 | Plant response rating, Pigweed, Redroot [7, 22]: 90 | Plant response rating, Foxtail, Green ([8]; 31 g ai/ha): 60 | Plant response rating, Foxtail, Green ([8]; 125 g ai/ha): 100 | Plant response rating, Ragweed ([9]; 31 g ai/ha): 50 | Plant response rating, Ragweed ([9]; 125 g ai/ha): 90 | Plant response rating, Corn [10, 24]: 10 | Plant response rating, Corn [10, 22]: 10 | Plant response rating, Barnyardgrass [11, 24]: 10 | Plant response rating, Barnyardgrass [11, 22]: 80 | Plant response rating, Pigweed, Redroot ([12]; 31 g ai/ha): 100 | Plant response rating, Pigweed, Redroot ([12]; 125 g ai/ha): 100 | Plant response rating, Sedge, Umbrella (0 to 100 scale where 0 is no effect and 100 is complete control) [13]: 0 | Plant response rating, Ducksalad (0 to 100 scale where 0 is no effect and 100 is complete control) [14]: 0 | Plant response rating, Ryegrass, Italian ([15]; 31 g ai/ha): 50 | Plant response rating, Ryegrass, Italian ([15]; 125 g ai/ha): 90 | Plant response rating, Rice (0 to 100 scale where 0 is no effect and 100 is complete control) [16]: 0 | Plant response rating, Barnyardgrass (0 to 100 scale where 0 is no effect and 100 is complete control) [17]: 0 | Plant response rating, Blackgrass [18, 24]: 0 | Plant response rating, Blackgrass [18, 22]: 30 | Plant response rating, Kochia [19, 21]: 30 | Plant response rating, Kochia [19, 22]: 70 | Plant response rating, Ryegrass, Italian [20, 21]: 50 | Plant response rating, Ryegrass, Italian [20, 22]: 70

Cc1cc(Cl)c2ccc(F)cc2c1-c1c(OCOC(=O)C(C)(C)C)c(C)nn(C)c1=O [Compound 30]
Plant response rating, Ragweed [1, 21]: 20 | Plant response rating, Ragweed [1, 22]: 100 | Plant response rating, Foxtail, Green [2, 21]: 30 | Plant response rating, Foxtail, Green [2, 22]: 80 | Plant response rating, Wheat [3, 21]: 20 | Plant response rating, Wheat [3, 22]: 60 | Plant response rating, Kochia ([4]; 31 g ai/ha): 20 | Plant response rating, Kochia ([4]; 125 g ai/ha): 20 | Plant response rating, Barnyardgrass ([5]; 31 g ai/ha, 0 to 100 scale): 0 | Plant response rating, Barnyardgrass [5, 23]: 80 | Plant response rating, Galium [6, 21]: 100 | Plant response rating, Galium [6, 22]: 100 | Plant response rating, Pigweed, Redroot [7, 21]: 80 | Plant response rating, Pigweed, Redroot [7, 22]: 90 | Plant response rating, Foxtail, Green ([8]; 31 g ai/ha): 20 | Plant response rating, Foxtail, Green ([8]; 125 g ai/ha): 100 | Plant response rating, Ragweed ([9]; 31 g ai/ha): 80 | Plant response rating, Ragweed ([9]; 125 g ai/ha): 90 | Plant response rating, Corn [10, 21]: 0 | Plant response rating, Corn [10, 22]: 10 | Plant response rating, Barnyardgrass [11, 21]: 20 | Plant response rating, Barnyardgrass [11, 22]: 50 | Plant response rating, Pigweed, Redroot ([12]; 31 g ai/ha): 80 | Plant response rating, Pigweed, Redroot ([12]; 125 g ai/ha): 100 | Plant response rating, Sedge, Umbrella (0 to 100 scale where 0 is no effect and 100 is complete control) [13]: 100 | Plant response rating, Ducksalad (0 to 100 scale where 0 is no effect and 100 is complete control) [14]: 75 | Plant response rating, Ryegrass, Italian ([15]; 31 g ai/ha): 100 | Plant response rating, Ryegrass, Italian ([15]; 125 g ai/ha): 100 | Plant response rating, Rice (0 to 100 scale where 0 is no effect and 100 is complete control) [16]: 35 | Plant response rating, Barnyardgrass (0 to 100 scale where 0 is no effect and 100 is complete control) [17]: 40 | Plant response rating, Blackgrass [18, 21]: 40 | Plant response rating, Blackgrass [18, 22]: 80 | Plant response rating, Kochia [19, 21]: 10 | Plant response rating, Kochia [19, 22]: 30 | Plant response rating, Ryegrass, Italian [20, 21]: 80 | Plant response rating, Ryegrass, Italian [20, 22]: 100
